The numbers were not newly measured in paper PMC4145847 (ChemMedChem, 2014), which cites them from elsewhere.

In data set [1] the test system is Lung HOP-62. The conditions noted are these: read-out: GI50 Lung HOP-62; NCI-60 panel; cited from earlier work.
In data set [2] the test system is Colon HCT-116. The conditions noted are these: read-out: GI50 Colon HCT-116; NCI-60 panel; cited from earlier work.
Data set [3] relates to CNS SF-539. The conditions noted are these: read-out: GI50 CNS SF-539; NCI-60 panel; cited from earlier work.
For data set [4], the system named is Melanoma UACC-62. The conditions noted are these: read-out: GI50 Melanoma UACC-62; NCI-60 panel; cited from earlier work.
In data set [5] the test system is Ovarian OVCAR-3. The conditions noted are these: read-out: GI50 Ovarian OVCAR-3; NCI-60 panel; cited from earlier work.
Data set [6] has as its system Renal SN12-C. The conditions noted are these: read-out: GI50 Renal SN12-C; NCI-60 panel; cited from earlier work.
Data set [7] has as its system NCI 60-cell line panel. The conditions noted are these: mean concentration that caused 50% growth inhibition in all 60 cell lines; cited from earlier work.
For data set [8], the system named is Bovine brain tubulin. The conditions noted are these: 1.0 μM tubulin, 5.0 μM [3H]colchicine, mean ±SD; cited from earlier work.

As for `COc1cc2c(cc1OS(N)(=O)=O)CC[C@@H]1[C@@H]2CC[C@]2(C)[C@@H](OS(N)(=O)=O)CC[C@@H]12` [Compound 1a, 2-methoxyestradiol-3,17-O,O-bis-sulfamate], the GI50 in data set [1] is 51 nM; in data set [2], 45 nM; in data set [3] it was 36 nM; in data set [4], under 10 nM; in data set [5] it was under 10 nM; in data set [6], 126 nM. Moreover, in data set [7], the MGM was 0.087 µM.

In the case of `COc1ccc(/C=C\c2cc(OC)c(OC)c(OC)c2)cc1O` [CA-4, combretastatin A-4], in data set [8], the “Colchicine binding Inhibition at 5 μM inhibitor” value was 98 ±0.7%.

What is called GI50 is the concentration giving 50% growth inhibition.
